The subject of one data set is LN-229 flank tumors. The data set can be described thus: Dynamic quantitative T1 mapping and Gd concentration maps of flank tumors. As to the method:
Representative bright-field images of GFP-positive LN-229 flank tumors for animals where 0.2 mmol Gd/kg of Optimark™, scrambled-Tris-(Gd-DOTA)3, or SBK2-Tris-(Gd-DOTA)3 was administered are presented in row 1210 in columns 1202, 1204, and 1206 respectively. GFP fluorescence images of LN-229 tumor cells for each of the three contrast agents are presented in row 1220 in columns 1202, 1204, and 1206 respectively. T2 high resolution images are presented in row 1230 in columns 1202, 1204, and 1206 respectively. T2 low-resolution images with a region of interest (ROI) illustrated by a dashed line are presented in row 1240 in columns 1202, 1204, and 1206 respectively show the tumor area used for T1 map quantification. Axial T1-weighted images of LN-229 flank tumor at baseline or pre-agent (e.g., before injection of contrast agents) are shown in row 1250. Axial T1-weighted images of LN-229 flank tumor at time of maximum contrast (e.g., 15 minutes) following intravenous injection are shown in row 1260.
High-resolution T2-weighted images were obtained for each mouse using a RARE (Rapid Acquisition with Relaxation Enhancement) acquisition (TR/TE=5000/40 ms, 20 slices, resolution=0.117×0.117×0.5 mm) to select the imaging slice for the dynamic T1 mapping acquisition. The dynamic T1 data were then acquired using a snapshot GRE (Gradient Recalled Echo) acquisition with inversion recovery preparation (10 inversion times [263, 775, 1287, 1799, 2311, 2823, 3335, 3847, 4359, and 4871 ms], GRE imaging readout TR/TE=4.0 ms/1.3 ms, flip angle=10 degrees, resolution=0.234×0.234×1 mm, Field of View (FOV)=30×30 mm, and 10 signal averages). The total acquisition time for each T1 mapping scan was 2.5 min. After five baseline/pre-agent T1 mapping scans, Optimark™, the targeted SBK2-Tris-(Gd-DOTA)3 agent, or the non-targeted scrambled-Tris-(Gd-DOTA)3 control was injected at a dose of 0.2 mmol of Gd/kg followed by a 50 μL flush of saline. T1 maps were then consecutively acquired every 2.5 min over 62.5 min.
The MRI data were imported into MATLAB enabling estimation of both pixel-wise T1 relaxation time maps as well as mean intra-tumoral T1 changes using an ROI analysis. The T1 maps were obtained from the T1 mapping acquisition mono-exponential models. To compare the multiple imaging agents, the pre and post-agent T1 maps were then used to calculate maps of percent change in T1, which is directly related to the concentration of each agent within the tumor. To calculate Gd concentrations, T1 relaxivity constants determined at 9.4 T were used along with T1 map values.
As the T1 maps and T2-weighted images were co-registered, the ROI analysis was performed by outlining the ROI on the T2-weighted images. The same ROI was then applied to all of the T1 maps and the average value in the ROI was calculated as a measure of tumor uptake of each imaging agent. Plots of normalized T1 values in the tumor were calculated by dividing the post-agent injection T1 maps by an average of the 5 baseline (pre-agent injection) tumor T1 values. This normalization was performed to limit the effects of variation in the pre-contrast tumor T1 values on the comparison of the molecular imaging agents.
As an imaging marker for contrast agent retention, a slope analysis was performed on the normalized T1 values. Slopes were calculated for Optimark™, scrambled-Tris-(Gd-DOTA)3, and SBK2-Tris-(Gd-DOTA)3 by using all of the mean tumor T1 values from 15 minutes to 60 minutes following agent administration. For each pair of contrast agents, normalized T1 map values at each time point, along with the slopes of post-agent T1 curves were evaluated for statistical significance using a two-tailed Student's t-test, assuming statistical significance at p<0.05.

For another data set, the system named is LN-229 flank tumor. It is filed as in vivo, mice. As for the experimental part:
FIG. 8 illustrates that the SBK2 based specific molecular imaging agent improves the enhancement of LN-229 tumors. FIG. 8 illustrates representative T1-weighted axial 2D gradient images of LN-229 flank tumor-bearing mice before (pre-injection) (column 840) and at 1 minute (column 842), 5 minutes (column 844), 10 minutes (column 846), 20 minutes (column 848), and 30 minutes (column 850) after the intravenous injection of ProHance™ (row 810), scrambled Tris-(Gd-DOTA)3 (row 820), or SBK2-Tris-(Gd-DOTA)3 (row 830) at 0.1 mmol Gd/kg. FIG. 8 also illustrates axial 2D gradient images heat map overlays on the tumor to indicate contrast intensity. FIG. 8 illustrates heat maps with overlays for T1-weighted axial 2D gradient images of LN-229 flank tumor-bearing mice before (pre-injection) (column 882) and at 1 minute (column 884), 5 minutes (column 886), 10 minutes (column 888), 20 minutes (column 890), and 30 minutes (column 892) after the intravenous injection of ProHance™ (row 860), scrambled Tris-(Gd-DOTA)3 (row 870), or SBK2-Tris-(Gd-DOTA)3 (row 880) at 0.1 mmol Gd/kg.
The SBK2 based specific molecular imaging agent was developed as a diagnostic imaging tool. To function as an imaging tool, SBK2 was conjugated to a Gd chelate [SBK2-Tris-(Gd-DOTA)3] to generate an MR-detectable molecular imaging agent. The ability of SBK2-Tris-(Gd-DOTA)3 to function as a contrast agent was compared to a macrocyclic gadolinium chelate (Gadoteridol, ProHance™) and to a scrambled molecular imaging agent linked to gadolinium [scrambled Tris-(Gd-DOTA)3]. SBK2-Tris-(Gd-DOTA)3 labeled human glioma tumors with a high level of contrast persisting for two hours. […] SBK2-Tris-(Gd-DOTA)3 labeling of PTPμ extracellular fragment retained in the tumor microenvironment is a more specific MR molecular imaging agent than a nonspecific gadolinium chelate.
FIG. 9 illustrates quantitation of LN-229 flank tumor enhancement following administration of control or targeted contrast agents in xenograft mice. Graphs 900 and 910 illustrate dose-response plots of LN-229 flank tumor contrast to noise ratio (CNR) with ProHance™ or SBK2-Tris-(Gd-DOTA)3 respectively administered at 0.03 mmol Gd/kg or 0.1 mmol Gd/kg.
Data is shown as means±SEM. […] At 60 to 120 minutes post-injection, the ProHance™ cleared more rapidly than SBK2-Tris-(Gd-DOTA)3 resulting in greater than 110% increase in SBK2-Tris-(Gd-DOTA)3 tumor CNR compared with ProHance™ (P<0.001). The SBK2-Tris-(Gd-DOTA)3 tumor CNR was approximately 53% greater than the scrambled Tris-(Gd-DOTA)3 tumor CNR at 60 to 90 minutes (P<0.001).

Data set [1] relates to orthotopic Gli36Δ5 glioma tumors. The data set can be described thus: Quantitative T1 mapping of orthotopic brain tumors with Optimark. The settings on record: for time of peak contrast following the injection: 0.1 mmol/kg.
Text: This is because T1 mapping is a quantitative MR imaging method that yields the absolute T1 relaxation values as opposed to the relative signal intensity values in T1-weighted images.
High-resolution T2-weighted MR images were acquired to localize the tumor and enable identification of the largest cross-section of tumor on MRI.
Graph 2300 illustrates mean Gd concentrations in the tumor before and after intravenous administration of 0.1 (line 2310) or 0.2 mmol/kg (line 2320) Optimark™ in cohorts of nu/nu athymic mice bearing orthotopic glioma tumors. Data is plotted as means+/−standard error. The mean tumor Gd concentration was measured at baseline or pre-agent and after contrast agent injection was measured every 2.5 minutes for 30 minutes.

Experimental findings from patent publication US20160270687A1, “System and Method for Quantitative Magnetic Resonance (MR) Analysis Using T1 Mapping” (priority 2013, published 2016) are described below.

Peptide text beside a SMILES is read from it. * marks the point of attachment. X1 = O=C(O)CN1CCN(CC(=O)O)CCN(CC(=O)NCCCn2cc(COCC(COCc3cn(CCCNC(=O)CN4CCN(CC(=O)O)CCN(CC(=O)O)CCN(CC(=O)O)CC4)nn3)(COCc3cn(CCCNC(=O)CN4CCN(CC(=O)O)CCN(CC(=O)O)CCN(CC(=O)O)CC4)nn3)NC(=O)CCN3C(=O)CC(*)C3=O)nn2)CCN(CC(=O)O)CC1

On to “C-GFTQPETGTDNDLWSVDNEK [scrambled, reference compound]”, for which, in the data set on LN-229 flank tumors (mouse, in vivo), the “time after peak within which contrast agent concentration begins to diminish” value (“time … to diminish” for short) is on record as “thirty”.
With `CC(C)C[C@H](NC(=O)[C@@H](NC(=O)[C@H](CC(N)=O)NC(=O)[C@@H](NC(=O)[C@H](CCC(N)=O)NC(=O)[C@H](CCC(=O)O)NC(=O)[C@H](Cc1c[nH]c2ccccc12)NC(=O)[C@H](CC(N)=O)NC(=O)[C@H](Cc1ccccc1)NC(=O)[C@H](CC(=O)O)NC(=O)[C@H](CC(=O)O)NC(=O)CNC(=O)[C@H](CCC(=O)O)NC(=O)CNC(=O)[C@@H](N)CSC1CC(=O)N(CCC(=O)NC(COCc2cn(CCCNC(=O)CN3CCN(CC(=O)O)CCN(CC(=O)O)CCN(CC(=O)O)CC3)nn2)(COCc2cn(CCCNC(=O)CN3CCN(CC(=O)O)CCN(CC(=O)O)CCN(CC(=O)O)CC3)nn2)COCc2cn(CCCNC(=O)CN3CCN(CC(=O)O)CCN(CC(=O)O)CCN(CC(=O)O)CC3)nn2)C1=O)C(C)C)[C@@H](C)O)C(=O)N[C@H](C(=O)N[C@@H](CCCCN)C(=O)N1CCC[C@H]1C(=O)N[C@H](C(=O)N[C@@H](CO)C(=O)N[C@@H](CC(=O)O)C(=O)O)[C@@H](C)O)[C@@H](C)O` (some centres unmarked) [SBK2-Tris-(Gd-DOTA)3] (H-C(X1)GEGDDFNWEQVNTLTKPTSD-OH; N-terminus and C-terminus assumed), the “increase in tumor CNR over scrambled Tris-(Gd-DOTA)3 or ProHance” value with LN-229 flank tumor (15 to 45 minutes post-injection, 0.1 mmol Gd/kg intravenous, P<0.001) is on record as about 55%. In addition, the “tumor CNR greater than the scrambled Tris-(Gd-DOTA)3 tumor CNR” value in the data set with LN-229 flank tumor (60 to 90 minutes, 0.1 mmol Gd/kg intravenous, P<0.001) was “approximately 53%”. For the same compound, the “increase in tumor CNR compared with ProHance” value with LN-229 flank tumor (60 to 120 minutes post-injection, 0.1 mmol Gd/kg intravenous, P<0.001) was “greater than 110%”. In addition, the “contrast enhancement compared with ProHance alone” value in the data set on LN-229 flank tumor (mouse, in vivo) is on record as “significantly higher”. For the same compound, the “Gd concentration in tumor at 60 minutes” value in the data set on LN-229 flank tumors (0.2 mmol Gd/kg) is given as “remains at near peak levels”. Further, the “retention judged from slope of mean tumor normalized T1 values” in the data set with LN-229 flank tumors (0.2 mmol Gd/kg, measured every 2.5 minutes for 62.5 minutes) was “highest retention”. The “distribution of T1 changes in the tumor” value in the data set on LN-229 flank tumors (30 minutes and 60 minutes, larger tumors) was “uniformly distributed throughout the tumor”. For the same compound, the “time the agent remains in the tumor” value in the data set on LN-229 flank tumors (compared with non-specific molecular imaging agents) turned out to be 1 h. Moreover, in the data set on LN-229 flank tumors (mouse, in vivo), the “non-specific uptake compared with scrambled-Tris-(Gd-DOTA)3” value is reported as “nearly identical non-specific uptake”. The “concentration accumulated in tumor relative to scrambled-Tris-(Gd-DOTA)3” value in the data set on LN-229 flank tumors (tumors containing the PTPμ fragment) is on record as “about twice”.
C-GEGDDFNWEQVNTLTKPTSD [SBK2]: the “retention time of the agent in the sample / glioblastoma” value with LN-229 flank tumor (mouse, in vivo) is recorded as “up to two”. Besides, the “time contrast agent concentration remains at peak levels” value with LN-229 flank tumors (mouse, in vivo) was “at least sixty”.
With `COCCNC(=O)CN(CCN(CCN(CC(=O)[O-])CC(=O)NCCOC)CC(=O)[O-])CC(=O)[O-].[Gd+3]` [Optimark™, gadoversetamide], the “time of peak enhancement in the tumors (mean normalized T1)” value in data set [1] (0.1 mmol/kg dose) and in data set [1] (0.2 mmol/kg dose) was 5 min each time. In data set [1] (0.1 mmol/kg dose, 5 minutes), the “change in normalized T1 values” is listed as “modest decrease”. The “distinction between T1 value of normal brain and tumor” value in data set [1] (0.1 mmol/kg dose, 30 minutes) was “no distinction”. The “time of peak contrast following the injection” value in data set [1] (T1-weighted FLASH images) was “five”; in data set [1] (snapshot GRE images, T1 maps, Gd concentration maps) it was “two and a half”. Further, the “change in normalized T1 values compared to 0.1 mmol/kg” value in data set [1] (0.2 mmol/kg dose, 5 minutes) was “larger decrease”. For the same compound, the “distinction between normalized T1 values of normal brain and tumor” value in data set [1] (0.2 mmol/kg dose, 30 minutes) is recorded as “weak distinction”. In the data set on LN-229 flank tumors (mouse, in vivo), the “time … to diminish” value was “thirty”.
Regarding `CC(O)CN1CCN(CC(=O)[O-])CCN(CC(=O)[O-])CCN(CC(=O)[O-])CC1.[Gd+3]` (centres unmarked) [Prohance™, gadoteridol, reference compound], the “time … to diminish” value in the data set on LN-229 flank tumors (mouse, in vivo) is listed as “thirty”.
